Experimental data as given in US6783769B1, “Transdermal therapeutic system TTS containing tolterodine” (Schwarz Pharma AG, priority 1999, dated 2004).
Like-named read-outs stand apart in the source and are kept apart here.

What was measured:
[1] = oral application, cited from earlier work
[2] = Rate of dermal penetration, deuterated versus non-deuterated tolterodine (general statement); format: in vitro ADME; conditions: compared with non-deuterated tolterodine

| SMILES | absolute bioavailability ([1]; rapid metabolisers) [%] | absolute bioavailability ([1]; slow metabolisers) [%] | rate of dermal penetration [2] |
| --- | --- | --- | --- |
| Cc1ccc(O)c(C(CCN(C(C)C)C(C)C)c2ccccc2)c1 (stereo not drawn) [tolterodine, N,N-diisopropyl-3-(2-hydroxy-5-methylphenyl)-3-phenylpropylamine] | 17 | 65 |  |
| [2H]C([2H])([2H])c1ccc(O)c(C(CCN(C(C)C)C(C)C)c2ccccc2)c1 (stereo not drawn) [deuterated tolterodine, 2-(3-diisopropylamino-1-phenylpropyl)-4-[^2H3]methyl-phenol] |  |  | considerably increased |
